In this assay the target is VEGFR2, unphosphorylated (Homo sapiens (Human), UniProt P35968). Nature of the assay: VEGFR ADP GLO Assay. In kind it is biochemical.
Chain of VEGFR2, unphosphorylated (P35968 20-1356): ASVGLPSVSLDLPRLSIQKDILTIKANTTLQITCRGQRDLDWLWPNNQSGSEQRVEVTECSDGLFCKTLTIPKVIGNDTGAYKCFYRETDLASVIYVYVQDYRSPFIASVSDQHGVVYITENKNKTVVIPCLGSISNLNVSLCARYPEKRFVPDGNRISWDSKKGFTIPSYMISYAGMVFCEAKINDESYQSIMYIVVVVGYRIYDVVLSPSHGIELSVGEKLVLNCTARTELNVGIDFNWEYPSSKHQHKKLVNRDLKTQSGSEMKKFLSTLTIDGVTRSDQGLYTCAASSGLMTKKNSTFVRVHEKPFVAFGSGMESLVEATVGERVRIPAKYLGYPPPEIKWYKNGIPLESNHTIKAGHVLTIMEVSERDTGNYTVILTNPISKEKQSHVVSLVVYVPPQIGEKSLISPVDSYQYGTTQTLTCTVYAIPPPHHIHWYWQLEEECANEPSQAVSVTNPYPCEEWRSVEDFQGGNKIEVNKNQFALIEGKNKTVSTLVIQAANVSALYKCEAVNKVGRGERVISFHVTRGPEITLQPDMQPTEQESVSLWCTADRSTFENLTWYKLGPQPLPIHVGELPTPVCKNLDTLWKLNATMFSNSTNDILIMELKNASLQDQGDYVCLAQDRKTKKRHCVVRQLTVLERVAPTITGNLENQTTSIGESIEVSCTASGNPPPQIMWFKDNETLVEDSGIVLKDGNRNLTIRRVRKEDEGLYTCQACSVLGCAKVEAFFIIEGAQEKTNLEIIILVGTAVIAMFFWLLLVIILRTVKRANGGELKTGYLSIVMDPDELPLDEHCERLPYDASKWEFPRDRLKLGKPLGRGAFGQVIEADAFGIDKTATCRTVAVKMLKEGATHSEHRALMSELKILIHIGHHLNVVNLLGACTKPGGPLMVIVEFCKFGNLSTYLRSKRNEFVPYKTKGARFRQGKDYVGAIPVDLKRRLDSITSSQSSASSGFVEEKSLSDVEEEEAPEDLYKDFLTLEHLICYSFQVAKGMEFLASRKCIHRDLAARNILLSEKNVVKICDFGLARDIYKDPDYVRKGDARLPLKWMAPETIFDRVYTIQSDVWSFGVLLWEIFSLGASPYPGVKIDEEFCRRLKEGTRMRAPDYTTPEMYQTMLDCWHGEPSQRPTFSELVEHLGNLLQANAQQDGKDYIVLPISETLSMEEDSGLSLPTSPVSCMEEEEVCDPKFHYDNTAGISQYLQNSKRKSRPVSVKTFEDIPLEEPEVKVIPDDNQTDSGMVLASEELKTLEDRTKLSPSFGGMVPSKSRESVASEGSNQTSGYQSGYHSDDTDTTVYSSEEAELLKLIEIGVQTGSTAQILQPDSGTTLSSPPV
What is called IC50 is the midpoint of a concentration-inhibition curve. Read a high IC50 as a need for much substance. Molecule `Cc1ncc(NC(=O)CN2C[C@@H](C)O[C@H](C)C2)cc1NC(=O)c1cnn2cc(-c3cn(C)nc3C)sc12` [Example 431] showed an IC50 greater than 7.5 µM.

Take `Cc1ncc(NC(=O)CN2CCCC2(C)C)cc1NC(=O)c1cnn2cc(-c3cnn(CCO)c3)sc12` [Example 447, N-(5-(2-(2,2-dimethylpyrrolidin-1-yl)acetamido)-2-methylpyridin-3-yl)-2-(1-(2-hydroxyethyl)-1H-pyrazol-4-yl)pyrazolo[5,1-b]thiazole-7-carboxamide]: the IC50 was greater than 7.5 µM.

`Cc1ncc(NC(=O)NCCN2CCCC2(C)C)cc1NC(=O)c1cnn2cc(-c3cnn(C)c3)sc12` [Example 38, N-(5-(3-(2-(2,2-dimethylpyrrolidin-1-yl)ethyl)ureido)-2-methyl-pyridin-3-yl)-2-(1-methyl-1H-pyrazol-4-yl)pyrazolo[5,1-b]thiazole-7-carboxamide] gave an IC50 greater than 7.5 µM.

Turning to `COCCn1cc(-c2cn3ncc(C(=O)Nc4cc(NC(=O)C[C@@H]5CCCN5C(C)C)cnc4C)c3s2)cn1` [Example 451, (S)—N-(5-(2-(1-isopropylpyrrolidin-2-yl)acetamido)-2-methylpyridin-3-yl)-2-(1-(2-methoxyethyl)-1H-pyrazol-4-yl)pyrazolo[5,1-b]thiazole-7-carboxamide], the IC50 is greater than 7.5 µM.

With `Cc1ncc(NC(=O)CN2C[C@@H](C)O[C@H](C)C2)cc1NC(=O)c1cnn2cc(-c3cnn(CCS(C)(=O)=O)c3)sc12` (relative stereo) [Example 432, N-(5-(2-(trans-2,6-dimethylmorpholino)acetamido)-2-methylpyridin-3-yl)-2-(1-(2-(methylsulfonyl)ethyl)-1H-pyrazol-4-yl)pyrazolo[5,1-b]thiazole-7-carboxamide], the IC50 was greater than 2.5 µM.

Take `Cc1ncc(NC(=O)CN2CCCC23CCC3)cc1NC(=O)c1cnn2cc(-c3cnn4c3COCC4)sc12` [Example 417, N-(5-(2-(5-azaspiro[3.4]octan-5-yl)acetamido)-2-methylpyridin-3-yl)-2-(6,7-dihydro-4H-pyrazolo[5,1-c][1,4]oxazin-3-yl)pyrazolo[5,1-b]thiazole-7-carboxamide]: the IC50 is greater than 7.5 µM.

As to `Cc1ncc(C(=O)NCCN2CC3CCC2CC3)cc1NC(=O)c1cnn2cc(-c3cnn4c3CCC4)sc12` [Example 480, N-(5-((2-(2-azabicyclo[2.2.2]octan-2-yl)ethyl)carbamoyl)-2-methylpyridin-3-yl)-2-(5,6-dihydro-4H-pyrrolo[1,2-b]pyrazol-3-yl)pyrazolo[5,1-b]thiazole-7-carboxamide], the IC50 is greater than 7.5 µM.

`Cc1ncc(NC(=O)CC2CN(C)C2)cc1NC(=O)c1cnn2cc(-c3cnn4c3CCC4)sc12` [Example 468, 2-(5,6-dihydro-4H-pyrrolo[1,2-b]pyrazol-3-yl)-N-(2-methyl-5-(2-(1-methylazetidin-3-yl)acetamido)pyridin-3-yl)pyrazolo[5,1-b]thiazole-7-carboxamide]: the IC50 is greater than 7.5 µM.

Molecule `Cc1ncc(C(=O)NCCN2CC3CCC2CC3)cc1NC(=O)c1cnn2cc(-c3cnn4c3COCC4)sc12` [Example 459, N-(5-((2-(2-azabicyclo[2.2.2]octan-2-yl)ethyl)carbamoyl)-2-methylpyridin-3-yl)-2-(6,7-dihydro-4H-pyrazolo[5,1-c][1,4]oxazin-3-yl)pyrazolo[5,1-b]thiazole-7-carboxamide] registered an IC50 greater than 7.5 µM.

Take `COc1ccncc1-c1cn2ncc(C(=O)Nc3cc(NC(=O)CN4CC(C)(C)C4)cnc3C)c2s1` [Example 40, N-(5-(2-(3,3-dimethylazetidin-1-yl)acetamido)-2-methylpyridin-3-yl)-2-(4-methoxypyridin-3-yl)pyrazolo[5,1-b]thiazole-7-carboxamide]: it took 6.18 µM to reach half-maximal inhibition (IC50).

In turn, `Cc1ncc(NC(=O)CN2CCC2)cc1NC(=O)c1cnn2cc(-c3cnn4c3OCCC4)sc12` [Example 412, N-(5-(2-(azetidin-1-yl)acetamido)-2-methylpyridin-3-yl)-2-(6,7-dihydro-5H-pyrazolo[5,1-b][1,3]oxazin-3-yl)pyrazolo[5,1-b]thiazole-7-carboxamide] showed an IC50 greater than 7.5 µM.

`Cc1ncc(NC(=O)CC2CN(C)C2)cc1NC(=O)c1cnn2cc(-c3cnn4c3CCC4)sc12` [Example 427, 2-(5,6-dihydro-4H-pyrrolo[1,2-b]pyrazol-3-yl)-N-(2-methyl-5-(2-(1-methylazetidin-3-yl)acetamido)pyridin-3-yl)pyrazolo[5,1-b]thiazole-7-carboxamide]: the IC50 was greater than 7.5 µM.

Consider `Cc1ncc(NC(=O)CNCC(C)C)cc1NC(=O)c1cnn2cc(-c3cnn4c3OCCC4)sc12` [Example 414, 2-(6,7-dihydro-5H-pyrazolo[5,1-b][1,3]oxazin-3-yl)-N-(5-(2-(isobutylamino)acetamido)-2-methylpyridin-3-yl)pyrazolo[5,1-b]thiazole-7-carboxamide], for which inhibition was half-maximal at 5.1 µM (IC50).

In turn, `Cc1ncc(NC(=O)CN2CC(C)(C)C2)cc1NC(=O)c1cnn2cc(-c3cnn(CCS(C)(=O)=O)c3)sc12` [Example 435, N-(5-(2-(3,3-Dimethylazetidin-1-yl)acetamido)-2-methylpyridin-3-yl)-2-(1-(2-(methylsulfonyl)ethyl)-1H-pyrazol-4-yl)pyrazolo[5,1-b]thiazole-7-carboxamide] showed a concentration for half-maximal inhibition (IC50) greater than 7.5 µM.

As for `COCCn1cc(-c2cn3ncc(C(=O)Nc4cc(NC(=O)C5(CN6CCC[C@@H]6C)CC5)cnc4C)c3s2)cn1` [Example 452, (S)-2-(1-(2-methoxyethyl)-1H-pyrazol-4-yl)-N-(2-methyl-5-(1-((2-methylpyrrolidin-1-yl)methyl)cyclopropanecarboxamido)pyridin-3-yl)pyrazolo[5,1-b]thiazole-7-carboxamide], the IC50 was greater than 7.5 µM.

In the case of `Cc1ncc(NC(=O)CN2CC(C)(C)C2)cc1NC(=O)c1cnn2cc(-c3cn(C)nc3C)sc12` [Example 430, 2-(1,3-Dimethyl-1H-pyrazol-4-yl)-N-(5-(2-(3,3-dimethylazetidin-1-yl)acetamido)-2-methylpyridin-3-yl)pyrazolo[5,1-b]thiazole-7-carboxamide], the IC50 amounted to 5.17 µM.

`Cc1ncc(C(=O)NCCN2CC(C)(C)C2)cc1NC(=O)c1cnn2cc(-c3cnn4c3OCCC4)sc12` [Example 479, 2-(6,7-dihydro-5H-pyrazolo[5,1-b][1,3]oxazin-3-yl)-N-(5-((2-(3,3-dimethylazetidin-1-yl)ethyl)carbamoyl)-2-methylpyridin-3-yl)pyrazolo[5,1-b]thiazole-7-carboxamide]: the IC50 was greater than 7.5 µM.

For `Cc1ncc(NC(=O)CN2CC(C)(C)C2)cc1NC(=O)c1cnn2cc(-c3cncnc3)sc12` [Example 429, N-(5-(2-(3,3-dimethylazetidin-1-yl)acetamido)-2-methylpyridin-3-yl)-2-(pyrimidin-5-yl)pyrazolo[5,1-b]thiazole-7-carboxamide], the IC50 is greater than 7.5 µM.

In the case of `CCCNCC(=O)Nc1cnc(C)c(NC(=O)c2cnn3cc(-c4cnn5c4CCC5)sc23)c1` [Example 456, 2-(5,6-dihydro-4H-pyrrolo[1,2-b]pyrazol-3-yl)-N-(2-methyl-5-(2-(propylamino)acetamido)pyridin-3-yl)pyrazolo[5,1-b]thiazole-7-carboxamide], the IC50 is greater than 7.5 µM.

In the case of `Cc1ncc(NC(=O)CN2CCCC2(C)C)cc1NC(=O)c1cnn2cc(-c3cccn(CCF)c3=O)sc12` [Example 449, N-(5-(2-(2,2-dimethylpyrrolidin-1-yl)acetamido)-2-methylpyridin-3-yl)-2-(1-(2-fluoroethyl)-2-oxo-1,2-dihydropyridin-3-yl)pyrazolo[5,1-b]thiazole-7-carboxamide], the IC50 was greater than 7.5 µM.

For the molecule `COC1(C)CN(CC(=O)Nc2cnc(C)c(NC(=O)c3cnn4cc(-c5cn(C)nc5C)sc34)c2)C1` [Example 442, 2-(1,3-Dimethyl-1H-pyrazol-4-yl)-N-(5-(2-(3-methoxy-3-methylazetidin-1-yl)acetamido)-2-methylpyridin-3-yl)pyrazolo[5,1-b]thiazole-7-carboxamide], the IC50 was greater than 7.5 µM.

Molecule `Cc1ncc(NC(=O)CN2CCC[C@@H]2C)cc1NC(=O)c1cnn2cc(-c3cnn4c3OCCC4)sc12` [Example 413, (S)-2-(6,7-dihydro-5H-pyrazolo[5,1-b][1,3]oxazin-3-yl)-N-(2-methyl-5-(2-(2-methylpyrrolidin-1-yl)acetamido)pyridin-3-yl)pyrazolo[5,1-b]thiazole-7-carboxamide] came in with a 50% inhibitory concentration (IC50) greater than 7.5 µM.

The molecule `Cc1ncc(NC(=O)CN2CCC(C)C2)cc1NC(=O)c1cnn2cc(-c3cn(C)nc3C)sc12` (stereo not drawn) [Example 446, 2-(1,3-Dimethyl-1H-pyrazol-4-yl)-N-(2-methyl-5-(2-(3-methylpyrrolidin-1-yl)acetamido)pyridin-3-yl)pyrazolo[5,1-b]thiazole-7-carboxamide] displayed an IC50 greater than 7.5 µM.

For `Cc1ncc(NC(=O)CN2CCCC23CCC3)cc1NC(=O)c1cnn2cc(-c3cnc4n3CCOC4)sc12` [Example 418, N-(5-(2-(5-azaspiro[3.4]octan-5-yl)acetamido)-2-methylpyridin-3-yl)-2-(5,6-dihydro-8H-imidazo[2,1-c][1,4]oxazin-3-yl)pyrazolo[5,1-b]thiazole-7-carboxamide], the IC50 was greater than 7.5 µM.

In turn, `Cc1ncc(NC(=O)CN2C[C@@H](C)O[C@H](C)C2)cc1NC(=O)c1cnn2cc(-c3cnn(C)c3C)sc12` (relative stereo) [Example 433, 2-(1,5-Dimethyl-1H-pyrazol-4-yl)-N-(5-(2-(trans-2,6-dimethylmorpholino)acetamido)-2-methylpyridin-3-yl)pyrazolo[5,1-b]thiazole-7-carboxamide] registered an IC50 greater than 7.5 µM.

With `Cc1ncc(C(=O)NCC2CCCN2C)cc1NC(=O)c1cnn2cc(-c3cnn4c3CCC4)sc12` (stereo not drawn) [Example 469, 2-(5,6-dihydro-4H-pyrrolo[1,2-b]pyrazol-3-yl)-N-(2-methyl-5-(((1-methylpyrrolidin-2-yl)methyl)carbamoyl)pyridin-3-yl)pyrazolo[5,1-b]thiazole-7-carboxamide], the IC50 was greater than 7.5 µM.

Regarding `Cc1ncc(NC(=O)CN2CC(C)(C)C2)cc1NC(=O)c1cnn2cc(-c3cccnc3OC(F)(F)F)sc12` [Example 437, N-(5-(2-(3,3-dimethylazetidin-1-yl)acetamido)-2-methylpyridin-3-yl)-2-(2-(trifluoromethoxy)pyridin-3-yl)pyrazolo[5,1-b]thiazole-7-carboxamide], the IC50 is greater than 7.5 µM.

Values taken from patent US20240109917A1 (ACTELION PHARMACEUTICALS LTD, priority 2020, published 2024).
